# US20100285990A1, “NEURITE OUTGROWTH AS AN ASSAY FOR MEMORY ENHANCING COMPOUNDS” (priority 2007, published 2010)
# Experiments:
# mice = assay: Contextual fear conditioning (freezing behavior) for long term memory; assay type: in vivo, mouse
# Method: Young-adult (10-12 weeks old) C57BL16 male mice (Taconic, N.Y.) were used for biochemistry and behavioral experiments. Upon arrival, mice were group-housed (5 mice) in standard laboratory cages and maintained on a 12:12 hours light-dark cycle. The experiments were always conducted during the light phase of the cycle. The day before the initiation of the experiment, mice were single housed in individual cages and maintained so till the end of the experiment. With the exception of training and testing times, the mice had ad lib access to food and water.
# To assess contextual memory, a standardized contextual fear conditioning task (Bourtchuladze, et al., Cell 79(1):59-68 (1994)) was used. On the training day, the mouse was placed into the conditioning chamber (Med Associates, Inc., VA) for 2 minutes before the onset of the unconditioned stimulus (US), a 0.5 mA foot shock of 2 seconds duration. The US was repeated with a 1 minute inter-trial interval between shocks. After the last training trial, the mice were left in the conditioning chamber for another 30 sec and were then placed back in their home cage. Memory retention was tested one or four days after training. Results were identical for both time points. The mouse was placed into the same training chamber and conditioning was assessed by scoring freezing behavior, as defined by the complete lack of movement. Total testing time lasted 3 minutes. The proceeding of each experiment was filmed. After each experimental subject, the experimental apparatus was thoroughly cleaned with 75% ethanol, water, dried, and ventilated.
# Mice were trained with one, two, five or ten trials of contextual conditioning. Four days later contextual memory was tested by scoring freezing behavior. […] Next, mice received weak training (two trials) to induce submaximal memory, or strong training (five trials) to induce maximum memory. Directly after training, the CREB enhancer Rolipram or vehicle was injected into the hippocampus. Contextual memory was tested by scoring freezing behavior four days after training.
# For intrahippocampal Rolipram injection or Gpr12 siRNA treatment, mice were anesthetized with 20 mg/kg Avertin and implanted with a 33-gauge guide cannula bilateraly into the dorsal hippocampus (coordinates: A=−1.8 mm, L=+/−1.5 mm to a depth of 1.2 mm) (Franklin and Paxinos, 1997). Five to nine days after recovery from surgery, animals were injected with drug or vehicle control. […]
# To assess contextual memory, a standardized contextual fear conditioning task (Bourtchuladze, et al, Cell 79(1):59-68 (1994)) was used. […] The mouse was placed into the same training chamber and conditioning was assessed by scoring freezing behavior, as defined by the complete lack of movement. […]
# NS1 cells = assay: Neurite outgrowth assay in Neuroscreen 1 (NS1) cells; assay type: cell-based; conditions: for number of branch points: FIG. 5B
# Method: The effect of CREB enhancers on neurite outgrowth in NS1 cells was assayed. On-target siRNAs (Dharmacon Inc., Lafayette, USA) were used for in vitro testing (neurite outgrowth in NS 1 cells). Neuroscreen 1 (NS1) cells (Cellomics Inc.) were transfected according to the manufactures specification using Dharmafect 3.
# Neuroscreen 1 (NS1) cells were cultured on collagen type I coated 75 cm^2 plastic flasks (Biocoat, Becton Dickinson) in a humidified incubator at 37° C. in 5% CO2. Cells were cultured in RPMI complete cell culture medium (Cambrex) supplemented with 10% heat-inactivated horse serum (Invitrogen), 5% heat-inactivated fetal bovine serum (Cellgro), and 2 mM L-glutamine (Cambrex). For expansion, the cells were trypsinized and split at 80% confluence. The cell culture media was changed every 2 to 3 days.
# NS1 cells were harvested as if they were being passaged and then counted using a Coulter counter (Becton Dickinson Coulter Z1). Cells were seeded in 96-well collagen I coated plates at a density of 2000 cells per well in volume of 200 μl. RPMI media was supplemented with 200 ng/ml nerve growth factor (NGFβ, Sigma). NS 1 cells were incubated for 72 hours to allow differentiation to a neuronal phenotype. NGFβ was then diluted to 50 ng/ml and the cells were treated with siRNA or compound at the indicated doses, respectively.
# Neurite outgrowth assays were performed using the Cellomics Arrayscan II Vti HCS scanner. Cells were stained using the HitKit™ HCS reagent kit (Cellomics) according to the manufactures specifications. The assay is based on immunoflourescence using an antibody that has been validated to specifically label both neurites and neuronal cell bodies. Briefly, cells were fixed in 3.7% formaldehyde and nuclei stained with Hoechst dye. Cells were then washed in neurite outgrowth buffer and neurites stained with Cellomics' proprietary primary antibody for neurite outgrowth high content screening. After 1 hour of incubation with the primary antibody, the cells were washed again and then incubated with fluorescently labeled secondary antibody solution for 1 hour. Antibody-stained 96-well plates were store at 4° C. in the dark until scanning. Plates were scanned using Cellomics ArrayScan II Vti HCS scanner. The neurite outgrowth assay uses two channels to carry out the scan. Channel 1 detects the Hoechst Dye and is used by the software to identify cells and for automated focusing. Channel 2 detects the FITC fluorescence of the secondary antibody and is used by the software to calculate all data generated in reference to neurites.
# [1] = tested on: mouse hippocampal neurons; assay: Neurite outgrowth assay in mouse hippocampal neurons; assay type: cell-based
# Method: Mouse hippocampal neurons were cultured for three days and then treated with HT-2175 or Rolipram for 24 hours. […] MEAN+/−SEM of eight experimental replicate wells (each measuring neurite length of at least 100 neurons) is shown. […] Mice were treated with HT-2175 or vehicle and then trained in contextual conditioning.
# Cryo-preserved NS 1 neurons were purchased from the University of Ottawa. Neurons were cultured on poly-D-lysine coated 96 well plates in serum free Neurobasal medium supplemented with 2% B27, 500 μM L-glutamine, and 1 mM pyruvate. Plating density was 20,000 neurons per well. For neurite outgrowth assays, neurons were cultured for 2-3 days and then treated for 24 hours with Rolipram, HT-2175, or HT-2157, respectively.
# CREB pathway = assay: CRE-luciferase reporter assay of CREB activation in Neuro2A cells; assay type: cell-based; conditions: p<0.001
# Description: CREB activity assays were constructed. Neuro2A cells were transfected with a CREB expressing or control vectors using standard molecular biology techniques. CRE-luciferase activity was monitored in the presence or absence of Forskolin ([…]). CREB over-expression led to an increase in the activation of the CRE-reporter construct (n=3 per group, * indicates p<0.05). CRE-luciferase reporter thus measures activation of the CREB pathway. In FIG. 1B, the effect of Rolipram on CREB-activation is shown. Neuro2A cells were treated with the PDE4 inhibitor Rolipram and CREB activation monitored via CRE-liciferase activation.
# The effect of Rolipram on CREB-activation was assayed in the presence of 0.5 μM Forskolin. Neuro2A cells were treated with the PDE4 inhibitor Rolipram and CREB activation monitored via CRE-liciferase activation in the presence of 0.5 μM Forskolin.
# [2] = siRNA treatment 48 hours, compared to vehicle alone
compound,measurement,setting,value
O=C1C(=Nc2cccc(C(F)(F)F)c2)c2ccccc2N1c1ccccc1 [HT-2157],contextual memory,"mice; contextual fear conditioning with two trials, FIG. 6D",dose dependently facilitates contextual memory
same,total neurite length per cell,NS1 cells; FIG. 6A,facilitates neurite outgrowth
same,number of branch points per dendrite,NS1 cells; FIG. 6B,facilitates neurite outgrowth
same,number of branch points,"[1]; mouse hippocampal neurons, FIG. 6C",dose-dependently facilitates neurite outgrowth
COc1ccc(C2CNC(=O)C2)cc1OC1CCCC1 (centres unmarked) [Rolipram],CREB activation monitored via CRE-luciferase activation,"CREB pathway; FIG. 1B, n=8 per group",activates CREB-dependent transcription
same,CREB activation monitored via CRE-luciferase activation,CREB pathway; in the presence of 0.5 μM Forskolin,activates CREB-dependent transcription
same,contextual memory (freezing behavior),"mice; strong training (five trials), injected into the hippocampus directly after training, tested four days after training",has no effect on maximal memory
same,contextual memory (freezing behavior),"mice; weak training (two trials), injected into the hippocampus directly after training, tested four days after training",dose-dependently facilitates submaximal contextual memory
same,neurite branch points,NS1 cells; increasing doses in the presence of 5 μM Forskolin,dose dependently increase neurite outgrowth
same,neurite length,"NS1 cells; increasing doses in the presence of 5 μM Forskolin, FIG. 3B",dose dependently increase neurite outgrowth
same,branch points per neurite,"[1]; neurons cultured three days, treated 24 hours, FIG. 4A",facilitate neurite outgrowth
"Gpr12 siRNA: siRNA against Gpr12; sense GAGGCACGCCCAUC AGAUAUU (SEQ ID NO: 1), anti-sense UAUCUGAUGGGCGUGCCUCUU (SEQ ID NO: 2) (sense GAGGCACGCCCAUCAGAUAUU; chemically modified siSTABLE siRNA, pattern not given here)",contextual memory (freezing behavior),"mice; siRNA injected repeatedly into hippocampus, weak training (two trials), tested 24 hours later, FIG. 5C",facilitates contextual memory
same,number of branch points,NS1 cells; siRNA treatment 48 hours,significantly enhanced neurite outgrowth
same,neurite length,NS1 cells; [2],significantly enhanced neurite outgrowth
"non-targeting control siRNA: 21mer non-targeting siRNA used as control; SEQ ID NO: 3 and 4 (chain 1 UAGCGACUAAACACAUCAAUU; chain 2 UUGAUGUGUUUAGUCGCUAUU; chemically modified siSTABLE siRNA, pattern not given here)",number of branch points,NS1 cells; siRNA treatment 48 hours,had no effect on branch points
same,neurite length,NS1 cells; [2],had no effect on neurite outgrowth
same,neurite length,"NS1 cells; siRNA treatment 48 hours, compared to vehicle alone, listed as Non-targeting control siRNA",had no effect on neurite length
